ChEMBL document CHEMBL4043226, “Design, synthesis and biological evaluation of benzamide and phenyltetrazole derivatives with amide and urea linkers as BCRP inhibitors” (Bioorg Med Chem Lett, 2017)

Assays:
[1] = test system: NCI-H460; test: Cytotoxicity against human H460 cells after 72 hrs by MTT assay; type: cell-based; details: NCI-H460, 72 h
[2] = Resistance index, ratio of mitoxantrone IC50 for human H460/MX20 cells to mitoxantrone IC50 for human H460 cells at 3 uM (reference value: 28.66)
[3] = Resistance index, ratio of mitoxantrone IC50 for human H460/MX20 cells to mitoxantrone IC50 for human H460 cells at 1 uM (reference value: 28.66)
[4] = Resistance index, ratio of mitoxantrone IC50 for human H460/MX20 cells to mitoxantrone IC50 for human H460 cells at 10 uM (reference value: 28.66)
[5] = molecular target: T1, Broad substrate specificity ATP-binding cassette transporter ABCG2 (Homo sapiens, UniProt Q9UNQ0); test: Inhibition of BCRP (unknown origin) expressed in MCF-7 MX cells assessed as reduction in Hoechst 33342 accumulation preincubated for 30 mins followed by Hoechst 33342 addition measured every 60 secs up to 120 mins by fluorescence assay; type: cell-based
T1 sequence (Q9UNQ0 whole entry): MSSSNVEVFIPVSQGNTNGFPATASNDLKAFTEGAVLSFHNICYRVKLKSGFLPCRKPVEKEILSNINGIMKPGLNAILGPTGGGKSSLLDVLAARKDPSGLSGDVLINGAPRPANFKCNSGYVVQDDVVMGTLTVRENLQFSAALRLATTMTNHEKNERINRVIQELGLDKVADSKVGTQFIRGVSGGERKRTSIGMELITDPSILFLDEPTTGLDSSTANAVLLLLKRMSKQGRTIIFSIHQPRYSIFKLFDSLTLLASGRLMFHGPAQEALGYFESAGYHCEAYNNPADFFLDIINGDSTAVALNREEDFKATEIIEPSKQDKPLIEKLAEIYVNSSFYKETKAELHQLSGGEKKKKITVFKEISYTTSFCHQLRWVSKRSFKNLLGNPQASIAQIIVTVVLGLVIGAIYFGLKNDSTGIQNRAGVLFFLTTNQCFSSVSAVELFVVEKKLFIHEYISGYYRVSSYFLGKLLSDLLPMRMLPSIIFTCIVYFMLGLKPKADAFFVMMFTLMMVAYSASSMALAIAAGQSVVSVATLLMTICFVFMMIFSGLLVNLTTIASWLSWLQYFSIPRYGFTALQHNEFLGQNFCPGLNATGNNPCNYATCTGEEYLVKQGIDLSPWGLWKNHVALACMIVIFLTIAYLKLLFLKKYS

[6] = Cytotoxicity against human NCI-H460/MX20 cells after 72 hrs by MTT assay; type: cell-based; details: NCI-H460/MX20, 72 h
[7] = molecular target: T1, Broad substrate specificity ATP-binding cassette transporter ABCG2; test: Inhibition of ABCG2 (unknown origin) expressed in high five insect cell membrane vesicles assessed as reduction in BCRP ATPase activity at 3 to 30 uM preincubated for 3 mins followed by ATP addition measured for 20 mins
[8] = molecular target: T2, ABCG2 (BCRP) (Homo sapiens, UniProt Q9UNQ0); test: Activation of ABCG2 (unknown origin) expressed in high five insect cell membrane vesicles assessed as induction of basal BCRP ATPase activity at 10 uM preincubated for 3 mins followed by ATP addition measured for 20 mins relative to control; details: High Five insect cell membrane vesicles expressing ABCG2, read-out: FC
T2 sequence (Q9UNQ0 whole entry): T1 sequence (Q9UNQ0 whole entry)

[9] = Inhibition of ABCG2 in human H460/MX20 cells assessed as potentiation of mitoxantrone induced antiproliferative activity by measuring mitoxantrone IC50 at 10 uM preincubated for 2 hrs followed by mitoxantrone addition measured after 72 hrs by MTT assay (reference value: 6.161 +/- 0.172 microM)
[10] = molecular target: T1, Broad substrate specificity ATP-binding cassette transporter ABCG2; test: Inhibition of ABCG2 (unknown origin) expressed in high five insect cell membrane vesicles assessed as reduction in BCRP ATPase activity up to 3 uM preincubated for 3 mins followed by ATP addition measured for 20 mins

IC50 [5] [µM] | inhibition (INH) [7] | fold induction at 20 min, 10 µM [8] | inhibition (INH) [10] | Structure (SMILES) | IC50 [1] [µM] | Ratio IC50 [2] | Ratio IC50 [3] | Ratio IC50 [4] | IC50 [6] [µM] | IC50 [9] [µM]
0.94 |  |  |  | CCCc1ccc(NC(=O)c2ccccc2NC(=O)c2ccc([N+](=O)[O-])cc2)cc1 | > 100 | 3.64 | 3.87 | 2.76 | > 100 | 
 | Active | 1.47 | Not Active | CCCc1ccc(NC(=O)c2ccccc2NC(=O)Nc2ccc([N+](=O)[O-])cc2)cc1 | > 100 | 2.24 | 2.89 | 1.51 | > 100 | 0.325
